The test system of experiment [1] is zymostenol accumulation in EpiSC-derived OPCs (EBP). As to the kind of experiment: GC/MS-based sterol profiling (zymostenol accumulation). The settings on record: Mus musculus, 24 hours, 8 doses from 0.15 nM to 333 nM, read-out: Zymostenol GCMS EC50. The class given is cell-based. Put shortly: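 Mouse epiblast stem cell-derived OPCs plated at 100,000 cells/well in growth-factor-free N2B27 and treated 24 h. Sterols extracted by modified Folch wash, silylated with BSTFA, and quantified by electron-impact GC/MS against cholesterol-d7 (zymostenol ion 458). Zymostenol normalised to 24 h 100 nM positive-control reference.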

In the next experiment the test system is EpiSC-derived OPCs. As to the kind of experiment: In vitro phenotypic screening of OPCs (MBP high-content imaging). The settings on record: Mus musculus, 72 h; percentage of MBP-positive oligodendrocytes, 3 days, 0.5 nM to 1000 nM; read-out: OPC EC50. The class given is cell-based. Put shortly: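 Mouse EpiSC-derived OPCs seeded at 150,000/cm^2 without growth factors, treated 3 days at 37° C with 8-point doses from 1000 nM to 0.5 nM. Fixed, MBP immunostained with DAPI; high-content imaging gives percentage MBP-positive oligodendrocytes.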

In general, EC50 refers to the concentration giving half of the maximal effect.

Consider `CC(C)n1nc(-c2cc(C(F)(F)F)ccn2)cc1[C@H]1[C@@H]2C[C@@H](N3CCC4(C3)CS(=O)(=O)C4)C[C@@H]21` (single isomer, unassigned) [Compound 20], for which the figures for the EC50 (in experiment [1]; with EpiSC-derived OPCs) were 1.2 nM and 39 nM, respectively.

Regarding `CC(C)n1nc(C(F)(F)F)cc1[C@H]1[C@@H]2C[C@H](N3CCC4(C3)CS(=O)(=O)C4)C[C@@H]21` (single isomer, unassigned) [Compound 23], the EC50 in experiment [1] was determined as 12 nM; in the experiment on EpiSC-derived OPCs, 53 nM.

Regarding `CC(C)n1nc(-c2ccnc(C(F)(F)F)c2)cc1[C@H]1[C@@H]2C[C@@H](N3CCC4(C3)CS(=O)(=O)C4)C[C@@H]21` (single isomer, unassigned) [Compound 18], the EC50 in experiment [1] came to 2.3 nM; in the experiment with EpiSC-derived OPCs, 15 nM.

For `CC(C)n1nc(-c2cccc(C(F)(F)F)n2)cc1[C@H]1[C@@H]2C[C@@H](N3CCC4(CC3)CS(=O)(=O)C4)C[C@@H]21` (single isomer, unassigned) [Compound 47], the EC50 was determined as 1.9 nM in experiment [1] and 1.7 nM with EpiSC-derived OPCs.

Consider `CC(C)n1nc(-c2cc(C(F)(F)F)ccn2)cc1[C@H]1[C@@H]2C[C@H](N3CCC4(C3)CS(=O)(=O)C4)C[C@@H]21` (single isomer, unassigned) [Compound 21], for which the EC50 was found to be 3.1 nM in experiment [1] and 6.6 nM in the experiment on EpiSC-derived OPCs.

Take `CC(C)n1nc(-c2cncc(C(F)(F)F)c2)cc1[C@H]1[C@@H]2C[C@@H](N3CC4(C3)CS(=O)(=O)C4)C[C@@H]21` (single isomer, unassigned) [Compound 98*]: the figures for the EC50 (in experiment [1]; in the experiment with EpiSC-derived OPCs) were 55 nM and 300 nM, respectively.

With `CC(C)n1nc(-c2cncc(C(F)(F)F)c2)nc1[C@H]1[C@@H]2C[C@H](N3CCC4(C3)CS(=O)(=O)C4)C[C@@H]21` (single isomer, unassigned) [Compound 17], the EC50 in experiment [1] came out at 42 nM; in the experiment with EpiSC-derived OPCs, 420 nM.

As to `CCn1nc(-c2cncc(C(F)(F)F)c2)cc1[C@H]1[C@@H]2C[C@H](N3CCC4(C3)CS(=O)(=O)C4)C[C@@H]21` (single isomer, unassigned) [Compound 25], the EC50 in experiment [1] is 0.36 nM; with EpiSC-derived OPCs it was 4.2 nM.

On to `CC(C)n1nc(-c2cncc(C(F)(F)F)c2)cc1[C@H]1[C@@H]2C[C@H](N3CC[C@@]4(CCS(=O)(=O)C4)C3)C[C@@H]21` (single isomer, unassigned) [Compound 9*], for which the EC50 in experiment [1] is 2.7 nM; in the experiment on EpiSC-derived OPCs, 3.8 nM.

For `CC(C)n1nc(-c2ccnc(C(F)(F)F)n2)cc1[C@H]1[C@@H]2C[C@H](N3CCC4(C3)CS(=O)(=O)C4)C[C@@H]21` [Compound 15, 6-((1R,3r,5S,6r)-6-(1-Isopropyl-3-(2-(trifluoromethyl)pyrimidin-4-yl)-1H-pyrazol-5-yl)bicyclo[3.1.0]hexan-3-yl)-2-thia-6-azaspiro[3.4]octane 2,2-dioxide], the EC50 in experiment [1] was 3.2 nM; with EpiSC-derived OPCs, 6.6 nM.

As for `CC(C)n1nc(-c2cccc(C(F)(F)F)c2)cc1[C@H]1[C@@H]2C[C@@H](N3CCC4(C3)CS(=O)(=O)C4)C[C@@H]21` (single isomer, unassigned) [Compound 2], the EC50 in experiment [1] is 1.81 nM; in the experiment on EpiSC-derived OPCs, 0.9 nM.

Turning to `CC(C)n1nc(-c2ccnc(C(F)(F)F)c2)cc1[C@H]1[C@@H]2C[C@H](N3CCC4(C3)CS(=O)(=O)C4)C[C@@H]21` (single isomer, unassigned) [Compound 19], the EC50 in experiment [1] stood at 2.5 nM; in the experiment with EpiSC-derived OPCs, 13 nM.

As to `CCn1nc(-c2cncc(C(F)(F)F)c2)cc1[C@H]1[C@@H]2C[C@@H](N3CCC4(C3)CS(=O)(=O)C4)C[C@@H]21` (single isomer, unassigned) [Compound 24], the EC50 in experiment [1] came out at 1.8 nM; in the experiment on EpiSC-derived OPCs, 9.3 nM.

Consider `CC(C)n1nc(C2(C(F)(F)F)CC2)cc1[C@H]1[C@@H]2C[C@H](N3CCC4(C3)CS(=O)(=O)C4)C[C@@H]21` [Compound 32, 6-((1R,3r,5S,6r)-6-(1-Isopropyl-3-(1-(trifluoromethyl)cyclopropyl)-1H-pyrazol-5-yl)bicyclo[3.1.0]hexan-3-yl)-2-thia-6-azaspiro[3.4]octane 2,2-dioxide], for which the EC50 in experiment [1] came to 5.3 nM; in the experiment on EpiSC-derived OPCs it was 29 nM.

`CC(C)n1nc(-c2cccc(C(F)(F)F)n2)cc1[C@H]1[C@@H]2C[C@H](N3CCC4(C3)CS(=O)(=O)C4)C[C@@H]21` (single isomer, unassigned) [Compound 12]: the EC50 in experiment [1] was 3.7 nM; with EpiSC-derived OPCs, 9.7 nM.

Take `CC(C)n1nc(-c2cccc(C(F)(F)F)n2)cc1[C@H]1[C@@H]2C[C@H](N3CCC4(CC3)CS(=O)(=O)C4)C[C@@H]21` (single isomer, unassigned) [Compound 48]: the EC50 stood at 10 nM in experiment [1] and 15 nM in the experiment on EpiSC-derived OPCs.

As to `CC(C)n1nc(-c2cncc(C(F)(F)F)c2)cc1[C@H]1[C@@H]2C[C@H](N3CCC4(CC3)CS(=O)(=O)C4)C[C@@H]21` (single isomer, unassigned) [Compound 40], the EC50 in experiment [1] was determined as 5.9 nM; with EpiSC-derived OPCs, 15 nM.

As to `CC(C)n1nc(-c2cncc(C(F)(F)F)c2)cc1[C@H]1[C@@H]2C[C@@H](N3CCC4(CC3)CS(=O)(=O)C4)C[C@@H]21` (single isomer, unassigned) [Compound 38], the EC50 stood at 2.9 nM in experiment [1] and 4.9 nM in the experiment on EpiSC-derived OPCs.

Take `CC(C)n1nc(-c2ccnc(C(F)(F)F)n2)cc1[C@H]1[C@@H]2C[C@@H](N3CCC4(CC3)CS(=O)(=O)C4)C[C@@H]21` (single isomer, unassigned) [Compound 49]: the values for the EC50 (in experiment [1]; in the experiment with EpiSC-derived OPCs) were 2.7 nM and 4.6 nM, respectively.

As for `CC(C)n1nc(-c2cnc(C(F)(F)F)nc2)cc1[C@H]1[C@@H]2C[C@H](N3CCC4(C3)CS(=O)(=O)C4)C[C@@H]21` [Compound 6, 6-((1R,3r,5S,6r)-6-(1-Isopropyl-3-(2-(trifluoromethyl)pyrimidin-5-yl)-1H-pyrazol-5-yl)bicyclo[3.1.0]hexan-3-yl)-2-thia-6-azaspiro[3.4]octane 2,2-dioxide], the EC50 in experiment [1] was determined as 29 nM; in the experiment with EpiSC-derived OPCs, 200 nM.

With `CC(C)n1nc(C(F)(F)F)cc1[C@H]1[C@@H]2C[C@@H](N3CCC4(C3)CS(=O)(=O)C4)C[C@@H]21` (single isomer, unassigned) [Compound 22], the EC50 in experiment [1] is 12 nM; in the experiment on EpiSC-derived OPCs, 53 nM.

For `CC(C)n1nc(-c2ccnc(C(F)(F)F)n2)cc1[C@H]1[C@@H]2C[C@@H](N3CCC4(C3)CS(=O)(=O)C4)C[C@@H]21` [Compound 28, 6-((1R,3s,5S,6r)-6-(1-isopropyl-3-(2-(trifluoromethyl)pyrimidin-4-yl)-1H-pyrazol-5-yl)bicyclo[3.1.0]hexan-3-yl)-2-thia-6-azaspiro[3.4]octane 2,2-dioxide], the EC50 worked out at 6 nM in experiment [1] and 39 nM in the experiment on EpiSC-derived OPCs.

On to `CC(C)n1nc(-c2cccc(C(F)(F)F)n2)cc1[C@H]1[C@@H]2C[C@@H](N3CCC4(C3)CS(=O)(=O)C4)C[C@@H]21` (single isomer, unassigned) [Compound 11], for which the EC50 in experiment [1] was determined as 7.2 nM; in the experiment on EpiSC-derived OPCs it was 14 nM.

With `CC(C)n1nc(-c2ccc(C(F)(F)F)cc2)cc1[C@H]1[C@@H]2C[C@H](N3CCC4(C3)CS(=O)(=O)C4)C[C@@H]21` [Compound 5, 6-((1R,3r,5S,6r)-6-(1-Isopropyl-3-(4-(trifluoromethyl)phenyl)-1H-pyrazol-5-yl)bicyclo[3.1.0]hexan-3-yl)-2-thia-6-azaspiro[3.4]octane 2,2-dioxide], the EC50 in experiment [1] was determined as 3.6 nM; with EpiSC-derived OPCs, 8 nM.

For the molecule `CC(C)n1nc(-c2cncc(C(F)(F)F)c2)cc1[C@H]1[C@@H]2C[C@H](N3CC4(C3)CS(=O)(=O)C4)C[C@@H]21` (single isomer, unassigned) [Compound 99*], the values for the EC50 (in experiment [1]; in the experiment on EpiSC-derived OPCs) were 86 nM and 300 nM, respectively.

Take `CC(C)n1nc(-c2cncc(C(F)(F)F)c2)cc1[C@H]1[C@@H]2C[C@H](N3CCC4(C3)CS(=O)(=O)C4)C[C@@H]21` (single isomer, unassigned) [Compound 4]: the values for the EC50 (in experiment [1]; in the experiment on EpiSC-derived OPCs) were 3 nM and 14 nM, respectively.

Turning to `CC(C)n1nc(-c2ccnc(C(F)(F)F)n2)cc1[C@H]1[C@@H]2C[C@H](N3CCC4(CC3)CS(=O)(=O)C4)C[C@@H]21` (single isomer, unassigned) [Compound 50], the results for the concentration for a half-maximal effect (EC50) (in experiment [1]; in the experiment with EpiSC-derived OPCs) were 20 nM and 69 nM, respectively.

In the case of `CC(C)n1nc(-c2cncc(C(F)(F)F)c2)nc1[C@H]1[C@@H]2C[C@@H](N3CCC4(C3)CS(=O)(=O)C4)C[C@@H]21` (single isomer, unassigned) [Compound 16], the results for the EC50 (in experiment [1]; in the experiment with EpiSC-derived OPCs) were 6.7 nM and 24 nM, respectively.

With `C=C(c1cc([C@H]2[C@@H]3C[C@H](N4CCC5(C4)CS(=O)(=O)C5)C[C@@H]32)n(C(C)C)n1)C(F)(F)F` [Compound 31, 6-((1R,3r,5S,6r)-6-(1-Isopropyl-3-(3,3,3-trifluoroprop-1-en-2-yl)-1H-pyrazol-5-yl)bicyclo[3.1.0]hexan-3-yl)-2-thia-6-azaspiro[3.4]octane 2,2-dioxide], the EC50 in experiment [1] worked out at 7.1 nM; with EpiSC-derived OPCs, 30 nM.
